Measurements published in patent US10954538B2, “Enzymatic cyclization of homofarnesylic acid” (BASF SE, priority 2016, dated 2021).

Test system: Zm-SHC-1 (squalene-hopene cyclase, SEQ ID NO: 2)
Test: Activity determination of the recombinant cyclase from E. coli LU15568 (conversion of homofarnesylic acid into sclareolide, GC)
Format: biochemical, Zymomonas mobilis
Conditions: E. coli LU15568 homogenate, pH 5.0, 37° C., 24 h, GC analysis
Method: Inoculated from a suitable 2 ml preculture, E. coli LU15568 was grown for 16 h at 37° C. in 20 ml LB-Amp/Spec/Cm ([…]), 0.1 mM IPTG, 0.5 g/l rhamnose in 100 ml Erlenmeyer flasks (with baffles), centrifuged at 5000*g/10 min and stored at 4° C. Protein extract was prepared by suspending the cell pellet in 15 ml disruption buffer (0.2 M Tris/HCl, 0.5 M EDTA, pH 8.0), 375 U benzonase (for example Novagen, 25 U/μL), 40 μL PMSF (100 mM, dissolved in i-PropOH), 0.8 g sucrose and approx. 0.5 mg of lysozyme. The reaction mixture was mixed and incubated on ice for 30 min. Thereafter, the mixture was frozen at −20° C.
After the reaction mixture had defrosted, it was made up to approx. 40 ml with distilled water and again incubated on ice for 30 min. […]
The conversion of homofarnesylic acid (1b) into sclareolide (3) can be determined with the following GC system:
• 0 min: 100° C. • 5° C./min to 200° C. • After 5 min: 30° C./min to 320° C. • thereafter constant • Duration of the method: 30 min Injector temperature: 280° C. Retention times (RT): • Homofarnesylic acid: peak 1 at 11.7 min, peak 2 at 12.1 min; • Sclareolide: approx. 13.5 min A calibration series, with the aid of which the concentration of unknown samples was determined, is established using authentic material (Sigma, catalog No.: 358002).

Structure (SMILES): CC(C)=CCC/C(C)=C/CC/C(C)=C/CC(=O)O [Homofarnesylic acid, (3E,7E)-4,8,12-trimethyltrideca-3,7,11-trienoic acid]
- conversion rate from the E,E isomer (20 mM homofarnesylic acid (E,E 74.93%)): 82.7%
- conversion rate in total (20 mM homofarnesylic acid, sodium citrate buffer): 74.5%
